The target in this test is Cdk4/CyclinD1 (Homo sapiens (Human), UniProt P11802). In words: Cdk4 kinase inhibition assay with recombinant Cdk4/CyclinD1, Rb substrate, [33P]-ATP filter plate. Conditions: 25 μM ATP, read-out: Cdk 4 IC50. The class given is biochemical. A digest of the protocol:
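Recombinant Cdk4/CyclinD1 or Cdk6/CyclinD3 phosphorylated Rb protein with [33P]-ATP for 1 h at room temperature. Protein was TCA-precipitated on filter plates and bound radioactivity counted. IC50 by nonlinear regression.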
Cdk4/CyclinD1, sequence (P11802 whole entry): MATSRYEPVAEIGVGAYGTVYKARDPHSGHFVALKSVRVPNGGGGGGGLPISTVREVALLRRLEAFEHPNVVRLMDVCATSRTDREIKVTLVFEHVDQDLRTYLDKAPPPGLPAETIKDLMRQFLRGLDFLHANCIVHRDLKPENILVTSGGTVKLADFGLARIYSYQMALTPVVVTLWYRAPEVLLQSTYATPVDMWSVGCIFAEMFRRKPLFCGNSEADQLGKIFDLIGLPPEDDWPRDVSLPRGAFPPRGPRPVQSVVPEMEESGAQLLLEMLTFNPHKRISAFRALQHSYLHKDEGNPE
Cdk4/CyclinD1, sequence (P24385 whole entry partner): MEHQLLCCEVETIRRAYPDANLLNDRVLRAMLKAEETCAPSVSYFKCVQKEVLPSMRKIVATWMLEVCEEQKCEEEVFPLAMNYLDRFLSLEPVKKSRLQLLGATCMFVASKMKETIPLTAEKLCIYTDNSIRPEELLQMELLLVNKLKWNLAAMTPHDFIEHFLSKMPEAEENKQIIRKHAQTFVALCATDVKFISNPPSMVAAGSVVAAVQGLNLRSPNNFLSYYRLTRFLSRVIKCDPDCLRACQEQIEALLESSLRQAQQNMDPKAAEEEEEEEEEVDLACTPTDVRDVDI
As a reminder, the IC50 is the concentration at which inhibition is half-maximal. Regarding `O=C1COC2(CCN(c3ccc(Nc4ncc5c6ccncc6n(C6CCCC6)c5n4)nn3)CC2)CN1` [Example 250, 9-(6-((9-cyclopentyl-9H-pyrido[4′,3′:4,5]pyrrolo[2,3-d]pyrimidin-2-yl)amino)-3-pyridazinyl)-1-oxa-4,9-diazaspiro[5.5]undecan-3-one], the IC50 was determined as 16 nM.
Turning to `CN1CCOC2(CCN(c3ccc(Nc4ncc5c6ccncc6n(C6CCCC6)c5n4)nn3)CC2)C1` [Example 251, 9-cyclopentyl-N-(6-(4-methyl-1-oxa-4,9-diazaspiro[5.5]undec-9-yl)-3-pyridazinyl)-9H-pyrido[4′,3′:4,5]pyrrolo[2,3-d]pyrimidin-2-amine], the IC50 is 3.2 nM.
For the compound `O=S1(=O)CCC(O)(c2ccc(Nc3ncc4c5ccncc5n(C5CCCC5)c4n3)nc2)CC1` [Example 263, 4-(6-((9-cyclopentyl-9H-pyrido[4′,3′:4,5]pyrrolo[2,3-d]pyrimidin-2-yl)amino)-3-pyridinyl)tetrahydro-2H-thiopyran-4-ol 1,1-dioxide], the IC50 came out at 14 nM.
Regarding `c1cncc(-c2ccc(Nc3ncc4c5ccncc5n(C5CCCC5)c4n3)nn2)c1` [Example 267, 9-Cyclopentyl-N-(6-(3-pyridinyl)-3-pyridazinyl)-9H-pyrido[4′,3′:4,5]pyrrolo[2,3-d]pyrimidin-2-amine], the IC50 came to 73 nM.
On to `c1cc2c3cnc(Nc4ccc(OC5CCNCC5)nn4)nc3n(C3CCCC3)c2cn1` [Example 268, 9-Cyclopentyl-N-(6-(4-piperidinyloxy)-3-pyridazinyl)-9H-pyrido[4′,3′:4,5]pyrrolo[2,3-d]pyrimidin-2-amine], for which the IC50 is 11 nM.
Regarding `Fc1nccc2c3cnc(Nc4ccc(OC5CCNCC5)nn4)nc3n(C3CCCC3)c12` [Example 269, 9-Cyclopentyl-8-fluoro-N-(6-(4-piperidinyloxy)-3-pyridazinyl)-9H-pyrido[4′,3′:4,5]pyrrolo[2,3-d]pyrimidin-2-amine], the IC50 is 35 nM.
The same measure for `COCC(C)(C)n1c2cnccc2c2cnc(Nc3ccc(N4CCC(N(C)C)CC4)cn3)nc21` [Example 273, N-(5-(4-(dimethylamino)-1-piperidinyl)-2-pyridinyl)-9-(2-methoxy-1,1-dimethylethyl)-9H-pyrido[4′,3′:4,5]pyrrolo[2,3-d]pyrimidin-2-amine]: 19 nM.
The result for `COCC(C)(C)n1c2cnccc2c2cnc(Nc3ccc(N4CCC(N(C)C)CC4)nn3)nc21` [Example 274, N-(6-(4-(dimethylamino)-1-piperidinyl)-3-pyridazinyl)-9-(2-methoxy-1,1-dimethylethyl)-9H-pyrido[4′,3′:4,5]pyrrolo[2,3-d]pyrimidin-2-amine] reads 1000 nM; that for `CN(C)C1CCN(c2ccc(Nc3ncc4c5ccncc5n(C5CCSCC5)c4n3)nn2)CC1` [Example 275, N-(6-(4-(dimethylamino)-1-piperidinyl)-3-pyridazinyl)-9-(tetrahydro-2H-thiopyran-4-yl)-9H-pyrido[4′,3′:4,5]pyrrolo[2,3-d]pyrimidin-2-amine], 17 nM.
For `CN(C)C1CCN(c2ccc(Nc3ncc4c5ccncc5n(C5CCSCC5)c4n3)nc2)CC1` [Example 276, N-(5-(4-(dimethylamino)-1-piperidinyl)-2-pyridinyl)-9-(tetrahydro-2H-thiopyran-4-yl)-9H-pyrido[4′,3′:4,5]pyrrolo[2,3-d]pyrimidin-2-amine], the half-inhibitory concentration (IC50) was found to be 96 nM.
As to `CCN(CC)C1CCN(c2ccc(Nc3ncc4c5ccnc(F)c5n(C5CCCC5)c4n3)nn2)CC1` [Example 277, 9-Cyclopentyl-N-(6-(4-(diethylamino)-1-piperidinyl)-3-pyridazinyl)-8-fluoro-9H-pyrido[4′,3′:4,5]pyrrolo[2,3-d]pyrimidin-2-amine], the 50% inhibitory concentration (IC50) amounted to 18 nM.
The result for `CCN(CC)C1CCN(c2ccc(Nc3ncc4c5ccnc(F)c5n(C5CCCC5)c4n3)nc2)CC1` [Example 278, 9-Cyclopentyl-N-(5-(4-(diethylamino)-1-piperidinyl)-2-pyridinyl)-8-fluoro-9H-pyrido[4′,3′:4,5]pyrrolo[2,3-d]pyrimidin-2-amine] reads 4.6 nM; that for `CN(C)C1CCN(c2ccc(Nc3ncc4c5ccncc5n(C5CCS(=O)(=O)CC5)c4n3)nn2)CC1` [Example 279, N-(6-(4-(dimethylamino)-1-piperidinyl)-3-pyridazinyl)-9-(1,1-dioxidotetrahydro-2H-thiopyran-4-yl)-9H-pyrido[4′,3′:4,5]pyrrolo[2,3-d]pyrimidin-2-amine], 590 nM; that for `CN(C)C1CCN(c2ccc(Nc3ncc4c5ccncc5n(C5CCS(=O)(=O)CC5)c4n3)nc2)CC1` [Example 280, N-(5-(4-(dimethylamino)-1-piperidinyl)-2-pyridinyl)-9-(1,1-dioxidotetrahydro-2H-thiopyran-4-yl)-9H-pyrido[4′,3′:4,5]pyrrolo[2,3-d]pyrimidin-2-amine], 59 nM.
As to `CCN(CC)C1CCN(c2ccc(Nc3ncc4c5ccnnc5n(C5CCCC5)c4n3)nc2)CC1` [Example 281, 9-Cyclopentyl-N-(5-(4-(diethylamino)-1-piperidinyl)-2-pyridinyl)-9H-pyrimido[5′,4′:4,5]pyrrolo[2,3-c]pyridazin-7-amine], the IC50 came out at 11 nM.
Consider `CCN(CC)C1CCN(c2ccc(Nc3ncc4c5ccnc(O)c5n(C5CCCC5)c4n3)nn2)CC1` [Example 282, 9-cyclopentyl-2-((6-(4-(diethylamino)-1-piperidinyl)-3-pyridazinyl)amino)-9H-pyrido[4′,3′:4,5]pyrrolo[2,3-d]pyrimidin-8-ol], for which the IC50 amounted to 2.8 nM.
With `CCN(CC)C1CCN(c2ccc(Nc3ncc4c5ccnc(OC)c5n(C5CCCC5)c4n3)nn2)CC1` [Example 283, 9-cyclopentyl-N-(6-(4-(diethylamino)-1-piperidinyl)-3-pyridazinyl)-8-methoxy-9H-pyrido[4′,3′:4,5]pyrrolo[2,3-d]pyrimidin-2-amine], the IC50 amounted to 11 nM.
With `CCN(CC)C1CCN(c2ccc(Nc3ncc4c5ccnc(O)c5n(C5CCCC5)c4n3)nc2)CC1` [Example 284, 9-Cyclopentyl-2-((5-(4-(diethylamino)-1-piperidinyl)-2-pyridinyl)amino)-9H-pyrido[4′,3′:4,5]pyrrolo[2,3-d]pyrimidin-8-ol], the IC50 was determined as 5 nM.
Regarding `CCN(CC)C1CCN(c2ccc(Nc3ncc4c5ccnc(OC)c5n(C5CCCC5)c4n3)nc2)CC1` [Example 285, 9-cyclopentyl-N-(5-(4-(diethylamino)-1-piperidinyl)-2-pyridinyl)-8-methoxy-9H-pyrido[4′,3′:4,5]pyrrolo[2,3-d]pyrimidin-2-amine], the IC50 came to 2.6 nM.
Regarding `CN(C)C1CCN(c2ccc(Nc3ncc4c5ccncc5n([C@H]5CC[C@H](O)CC5)c4n3)nn2)CC1` [Example 287, Trans-4-(2-((6-(4-(dimethylamino)-1-piperidinyl)-3-pyridazinyl)amino)-9H-pyrido[4′,3′:4,5]pyrrolo[2,3-d]pyrimidin-9-yl)cyclohexanol], the IC50 came to 123 nM.
Take `CN(CCO)c1ccc(Nc2ncc3c4ccncc4n(C4CCCC4)c3n2)nn1` [Example 291]: the IC50 amounted to 3.9 nM.
As for `COCCn1c2cnccc2c2cnc(Nc3ccc(N4CCC(N(C)C)CC4)nn3)nc21` [Example 315], the IC50 was found to be 1380 nM.
As for `CC[C@H](C)n1c2cnccc2c2cnc(Nc3ccc(N4CCC(N(C)C)CC4)cn3)nc21` [Example 326], the IC50 was 620 nM.
The same measure for `CC[C@H](C)n1c2cnccc2c2cnc(Nc3ccc(N4CCC(N(C)C)CC4)nn3)nc21` [Example 327]: 630 nM; for `CC[C@H](C)n1c2cnccc2c2cnc(Nc3ccc(N4CCNC(C)(C)C4)cn3)nc21` [Example 328]: 51 nM.
The same measure for `CC[C@H](C)n1c2cnccc2c2cnc(Nc3ccc(N4CCN[C@@H](C)C4)cn3)nc21` [Example 329]: 500 nM; for `CC[C@H](C)n1c2cnccc2c2cnc(Nc3ccc(N4CCNCC4)cn3)nc21` [Example 330]: 248 nM; for `CC[C@H](C)n1c2cnccc2c2cnc(Nc3ccc(N4CCNCC4)nn3)nc21` [Example 331]: 390 nM.
The same measure for `CC[C@H](C)n1c2cnccc2c2cnc(Nc3ccc(N4CCNC(C)(C)C4)nn3)nc21` [Example 332]: 16 nM; for `CC[C@H](C)n1c2cnccc2c2cnc(Nc3ccc(N4CCN[C@@H](C)C4)nn3)nc21` [Example 333]: 300 nM; for `CC[C@H](C)n1c2cnccc2c2cnc(Nc3ccc(N4CCC(NC)CC4)nn3)nc21` [Example 334]: 800 nM.
For `CC[C@H](C)n1c2cnccc2c2cnc(Nc3ccc(N4CCC(NC)CC4)cn3)nc21` [Example 335], the IC50 worked out at 1630 nM.
For the compound `CC[C@H](C)n1c2cnccc2c2cnc(Nc3ccc(N4CC[C@@H](O)C4)cn3)nc21` [Example 336], the IC50 amounted to 2 nM.
Regarding `CC[C@H](C)n1c2cnccc2c2cnc(Nc3ccc(N4CC[C@@H](O)C4)nn3)nc21` [Example 337], the IC50 was 22 nM.
The result for `CC1(C)CN(c2ccc(Nc3ncc4c5ccncc5n([C@@H]5CCNC5)c4n3)nc2)CCN1` [Example 338] reads 302 nM; that for `C[C@H]1CN(c2ccc(Nc3ncc4c5ccncc5n([C@@H]5CCNC5)c4n3)nc2)CCN1` [Example 339], 300 nM; that for `CNC1CCN(c2ccc(Nc3ncc4c5ccncc5n([C@@H]5CCNC5)c4n3)nc2)CC1` [Example 340], 370 nM.
`C[C@H]1CN(c2ccc(Nc3ncc4c5ccncc5n([C@H]5CCC[C@H]5O)c4n3)nc2)CCN1` [Example 359]: the IC50 stood at 71 nM.
The result for `CC1(C)CN(c2ccc(Nc3ncc4c5ccncc5n([C@H]5CCC[C@H]5O)c4n3)nc2)CCN1` [Example 360] reads 66 nM; that for `O[C@@H]1CCC[C@@H]1n1c2cnccc2c2cnc(Nc3ccc(N4CCNCC4)nn3)nc21` [Example 362], 162 nM; that for `C[C@H]1CN(c2ccc(Nc3ncc4c5ccncc5n([C@H]5CCC[C@H]5O)c4n3)nn2)CCN1` [Example 363], 211 nM.
Consider `CNC1CCN(c2ccc(Nc3ncc4c5ccncc5n([C@H]5CCC[C@H]5O)c4n3)nn2)CC1` [Example 364], for which the IC50 came out at 258 nM.
For the compound `CC1(C)CN(c2ccc(Nc3ncc4c5ccncc5n([C@H]5CCC[C@H]5O)c4n3)nn2)CCN1` [Example 365], the IC50 worked out at 159 nM.

Source of the values: patent US8841312B2, “Fused pyridine, pyrimidine and triazine compounds as cell cycle inhibitors” (Amgen Inc., priority 2007, dated 2014).
